According to the NIST ThermoML archive (doi:10.1021/acs.jced.5b00737):
Numbers after ± are expanded uncertainties.

Conditions: 298.15 K; Liquid; Gas chromatography

For `c1ccc(C2(N3CCCCC3)CCCCC2)cc1` [1-(1-phenylcyclohexyl)piperidine], the “vapor or sublimation pressure” value was 3e-05 ± 1.2e-05 kPa.

For `CC(Cc1ccc(C(C)(C)C)cc1)CN1CCCCC1` (configuration not stated) [1-(3-(4-(tert-butyl)phenyl)-2-methylpropyl)piperidine], the “vapor or sublimation pressure” value was 1.6e-05 ± 8e-06 kPa.
